Data: US20180000085A1, “USE OF PICOLINAMIDE COMPOUNDS WITH FUNGICIDAL ACTIVITY” (DOW AGROSCIENCES LLC, priority 2014, published 2018)

Key:
Puccinia triticina = experiment: Wheat brown rust (PUCCRT) disease control on wheat seedlings; type: in vivo; set-up: key to PUCCRT 3DC, HV activity at 100 ppm (% control rating) / PUCCRT disease control, 3DC / PUCCRT 1DP disease control rating, HV activity / PUCCRT 3DC disease control rating, HV activity / PUCCRT 3DC, LV activity at 125.1 g/H (% Control rating) / PUCCRT 1DP, LV activity at 125.1 g/H (% Control rating) / PUCCRT 3DC disease control rating, LV activity at 125.1 g/H / PUCCRT 1DP disease control rating, LV activity at 125.1 g/H / PUCCRT 3DC disease control rating, HV activity at 100 ppm / PUCCRT 1DP disease control rating, HV activity at 100 ppm / HV activity at 100 ppm PUCCRT 3DC (disease control rating) / LV activity at 125.1 g/H PUCCRT 1DP (disease control rating) / LV activity at 125.1 g/H PUCCRT 3DC (disease control rating): A: > 80; B: ≤ 80; C: Not Tested; D: No Activity Observed in the Reported Assay; conditions: low volume application, 125.1 g/H; for PUCCRT 1DP, LV activity at 125.1 g/H (% Control rating): 1 Day Protectant; for PUCCRT 3DC, LV activity at 125.1 g/H (% Control rating): 3 Day Curative
Zymoseptoria tritici = experiment: Leaf blotch of wheat (SEPTTR) disease control on wheat seedlings; type: in vivo; set-up: key to SEPTTR 1DP, HV activity at 100 ppm (% control rating) / SEPTTR 3DC, HV activity at 100 ppm (% control rating) / SEPTTR disease control, 1DP / SEPTTR disease control, 3DC / SEPTTR 1DP disease control rating, HV activity / SEPTTR 3DC disease control rating, HV activity / SEPTTR 3DC, LV activity at 125.1 g/H (% Control rating) / SEPTTR 1DP, LV activity at 125.1 g/H (% Control rating) / SEPTTR 1DP disease control rating, LV activity at 125.1 g/H / SEPTTR 3DC disease control rating, LV activity at 125.1 g/H / SEPTTR 3DC disease control rating, HV activity at 100 ppm / SEPTTR 1DP disease control rating, HV activity at 100 ppm / HV activity at 100 ppm SEPTTR 3DC (disease control rating) / HV activity at 100 ppm SEPTTR 1DP (disease control rating) / LV activity at 125.1 g/H SEPTTR 1DP (disease control rating) / LV activity at 125.1 g/H SEPTTR 3DC (disease control rating): A: > 80; B: ≤ 80; C: Not Tested; D: No Activity Observed in the Reported Assay; conditions: low volume application, 125.1 g/H; for SEPTTR 1DP, LV activity at 125.1 g/H (% Control rating): 1 Day Protectant; for SEPTTR 3DC, LV activity at 125.1 g/H (% Control rating): 3 Day Curative

Row | SMILES | PUCCRT 1DP, LV activity at 125.1 g/H (% Control rating) (Puccinia triticina) | PUCCRT 3DC, LV activity at 125.1 g/H (% Control rating) (Puccinia triticina) | SEPTTR 1DP, LV activity at 125.1 g/H (% Control rating) (Zymoseptoria tritici) | SEPTTR 3DC, LV activity at 125.1 g/H (% Control rating) (Zymoseptoria tritici)
1 | CCCOC[C@@H](Oc1ccccc1)[C@H](C)OC(=O)[C@H](CC)NC(=O)c1nccc(OC)c1OC(C)=O [Cmpd 484] | B (≤ 80) | A (> 80) | B (≤ 80) | D
2 | COc1ccnc(C(=O)N[C@@H](C)C(=O)O[C@@H](C)[C@@H](COc2ccccc2)Oc2ccccc2)c1OC(C)=O [Cmpd 488] | A (> 80) | A (> 80) | A (> 80) | B (≤ 80)
3 | CC[C@H](NC(=O)c1nccc(OC)c1OC(C)=O)C(=O)O[C@@H](C)[C@@H](COc1ccccc1)Oc1ccccc1 [Cmpd 489] | A (> 80) | A (> 80) | A (> 80) | A (> 80)
4 | COCC[C@H](Cc1ccc(F)cc1)[C@@H](OC(=O)C(C)C)[C@H](C)OC(=O)[C@H](C)NC(=O)c1nccc(OC)c1OCOC(C)=O [Cmpd 499] | A (> 80) | A (> 80) | D | B (≤ 80)
5 | CC[C@@H](CCC(C)C)[C@H](OCC1CC1)[C@H](C)OC(=O)[C@H](C)NC(=O)c1nccc(OC)c1OCOC(C)=O [Cmpd 503] | A (> 80) | A (> 80) | B (≤ 80) | A (> 80)
6 | CC[C@@H](CCC(C)C)[C@H](OCC1CC1)[C@H](C)OC(=O)[C@H](C)NC(=O)c1nccc(OC)c1OC(C)=O [Cmpd 504] | A (> 80) | A (> 80) | B (≤ 80) | B (≤ 80)
7 | CCCO[C@@H](C1CC1)[C@@H](Oc1ccccc1)[C@H](C)OC(=O)[C@H](C)NC(=O)c1nccc(OC)c1OCOC(C)=O [Cmpd 505] | A (> 80) | A (> 80) | B (≤ 80) | B (≤ 80)
8 | CC[C@H](CCC(C)C)[C@@H](OCC1CC1)[C@H](C)OC(=O)[C@H](C)NC(=O)c1nccc(OC)c1OCOC(C)=O [Cmpd 506] | A (> 80) | B (≤ 80) | B (≤ 80) | B (≤ 80)
9 | CC[C@H](CCC(C)C)[C@@H](OCC1CC1)[C@H](C)OC(=O)[C@H](C)NC(=O)c1nccc(OC)c1OC(C)=O [Cmpd 507] | B (≤ 80) | B (≤ 80) | B (≤ 80) | B (≤ 80)
10 | CC[C@H](CC1CCCC1)[C@@H](OCC1CC1)[C@H](C)OC(=O)[C@H](C)NC(=O)c1nccc(OC)c1OC(C)=O [Cmpd 508] | B (≤ 80) | B (≤ 80) | B (≤ 80) | B (≤ 80)
11 | CC[C@H](CC1CCCC1)[C@@H](OCC1CC1)[C@H](C)OC(=O)[C@H](C)NC(=O)c1nccc(OC)c1OCOC(C)=O [Cmpd 509] | B (≤ 80) | B (≤ 80) | B (≤ 80) | D
12 | CCCO[C@@H]([C@H](C)OC(=O)[C@H](C)NC(=O)c1nccc(OC)c1OCOC(C)=O)[C@H](CC)Oc1ccccc1 [Cmpd 510] | A (> 80) | A (> 80) | A (> 80) | B (≤ 80)
13 | CCCO[C@@H]([C@H](C)OC(=O)[C@H](C)NC(=O)c1nccc(OC)c1OC(C)=O)[C@H](CC)Oc1ccccc1 [Cmpd 511] | A (> 80) | A (> 80) | B (≤ 80) | A (> 80)
14 | CCCO[C@@H]([C@H](C)OC(=O)[C@H](C)NC(=O)c1nccc(OC)c1OCOC(=O)COCC)[C@H](CC)Oc1ccccc1 [Cmpd 512, (S)-(2S,3S,4S)-4-phenoxy-3-propoxyhexan-2-yl-2-(3-((2-ethoxyacetoxy)methoxy)-4-methoxypicolinamido)propanoate] | A (> 80) | A (> 80) | B (≤ 80) | A (> 80)
15 | C=CC[C@@H](OCc1ccccc1)[C@H](C)OC(=O)[C@H](C)NC(=O)c1nccc(OC)c1OCOC(C)=O [Cmpd 516] | A (> 80) | A (> 80) | B (≤ 80) | D
16 | C=CC[C@@H](OCc1ccccc1)[C@H](C)OC(=O)[C@H](C)NC(=O)c1nccc(OC)c1OCOC(=O)COCC [Cmpd 517] | A (> 80) | A (> 80) | A (> 80) | D
17 | COc1ccnc(C(=O)NC(C)C(=O)OC(C)COCc2ccccc2)c1OCOC(C)=O (stereo not shown) [Cmpd 520] | B (≤ 80) | B (≤ 80) | B (≤ 80) | D
18 | CCCOCC(C)OC(=O)C(C)NC(=O)c1nccc(OC)c1OC(C)=O (stereo not shown) [Cmpd 521] | D | D | D | D
19 | CCCOCC(C)OC(=O)C(C)NC(=O)c1nccc(OC)c1OCOC(C)=O (stereo not shown) [Cmpd 522] | D | D | B (≤ 80) | B (≤ 80)
20 | CCCOCC(C)OC(=O)C(C)NC(=O)c1nccc(OC)c1OCOC(=O)C(C)C (stereo not shown) [Cmpd 523] | D | D | D | D
21 | COc1ccnc(C(=O)NC(C)C(=O)OC(C)COc2ccccc2)c1OC(C)=O (stereo not shown) [Cmpd 524] | D | B (≤ 80) | B (≤ 80) | B (≤ 80)
22 | COc1ccnc(C(=O)NC(C)C(=O)OC(C)COc2ccccc2)c1OCOC(C)=O (stereo not shown) [Cmpd 525] | D | B (≤ 80) | B (≤ 80) | D
